PubChem BioAssay (NCI)
Several values for one entry are separate records, joined by “and”; a condition that tells them apart may be missing. Equal entries are not always repeated.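 Compound exposure: 48 hours, 5 concentrations, 96-well plates. GI50 = concentration required for 50% inhibition of growth. The concentration for full growth arrest is given as TGI.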

How the values were obtained:
Test in all cases: inhibition of tumour cell growth, NCI panel, 48 h
MDA-MB-231 breast = system: MDA-MB-231 breast
COLO 205 colon = system: COLO 205 colon
NCI/ADR-RES ovarian = system: NCI/ADR-RES ovarian
HCC-2998 colon = system: HCC-2998 colon
KM12 colon = system: KM12 colon
RXF 393 renal = system: RXF 393 renal
HOP-62 NSCLC = system: HOP-62 NSCLC
MOLT-4 leukemia = system: MOLT-4 leukemia
NCI-H23 lung = system: NCI-H23 lung
MCF7 breast = system: MCF7 breast

## NC(CC(O)(c1ccccc1)c1ccccc1)c1ccccc1S (stereo unspecified)
MDA-MB-231 breast
  TGI: 33.3 µM
COLO 205 colon
  TGI: 32 µM
NCI/ADR-RES ovarian
  TGI: 33.5 µM
HCC-2998 colon
  TGI: 50 µM
KM12 colon
  TGI: 25.5 µM
RXF 393 renal
  TGI: 31 µM
HOP-62 NSCLC
  TGI: 30.2 µM
MOLT-4 leukemia
  TGI: 59.6 µM
NCI-H23 lung
  TGI: 37.7 µM
MCF7 breast
  TGI: 29.9 µM

## CN(C)c1ccc(/C=C/C(=O)O)cc1
COLO 205 colon
  TGI: > 100 µM
HCC-2998 colon
  TGI: > 100 µM
KM12 colon
  TGI: > 100 µM
HOP-62 NSCLC
  TGI: > 100 µM
MOLT-4 leukemia
  TGI: > 100 µM

## Cc1ccc(S(=O)(=O)N/N=C2/CCC(C(C)(C)C)CC2Br)cc1 (stereo unspecified)
MDA-MB-231 breast
  TGI: > 100 µM
COLO 205 colon
  TGI: > 100 µM
NCI/ADR-RES ovarian
  TGI: 36.5 µM
KM12 colon
  TGI: 47 µM
HOP-62 NSCLC
  TGI: > 100 µM
MOLT-4 leukemia
  TGI: 49.3 µM
NCI-H23 lung
  TGI: > 100 µM
MCF7 breast
  TGI: 51.9 µM

## Cn1ccnc1CCc1ccc(Cl)c(Cl)c1
COLO 205 colon
  TGI: > 100 µM
KM12 colon
  TGI: > 100 µM
RXF 393 renal
  TGI: > 100 µM
HOP-62 NSCLC
  TGI: > 100 µM
MOLT-4 leukemia
  TGI: > 100 µM
NCI-H23 lung
  TGI: > 100 µM

## COc1c(C)c(C/C=C(\C)CC/C=C(\C)CC/C=C(\C)CCC=C(C)C)c(OC)c2ccccc12
MDA-MB-231 breast
  TGI: > 100 µM
COLO 205 colon
  TGI: > 100 µM
NCI/ADR-RES ovarian
  TGI: > 100 µM
KM12 colon
  TGI: > 100 µM
RXF 393 renal
  TGI: > 100 µM
HOP-62 NSCLC
  TGI: > 100 µM
MOLT-4 leukemia
  TGI: > 100 µM
NCI-H23 lung
  TGI: > 100 µM
MCF7 breast
  TGI: > 100 µM

## C[n+]1c2ccccc2c(/C=N\NS(=O)(=O)c2ccc(Cl)cc2)c2ccccc21
HCC-2998 colon
  TGI: > 100 µM
KM12 colon
  TGI: > 100 µM
RXF 393 renal
  TGI: > 100 µM
HOP-62 NSCLC
  TGI: > 100 µM
MOLT-4 leukemia
  TGI: > 100 µM
NCI-H23 lung
  TGI: > 100 µM

## Nc1nc(=O)n(C2OC(CO)C(O)C2O)c2ncc(-c3ccc(-c4ccccc4)cc3)nc12 (stereo unspecified)
MDA-MB-231 breast
  TGI: 57.7 µM
COLO 205 colon
  TGI: > 100 µM
NCI/ADR-RES ovarian
  TGI: > 100 µM
HCC-2998 colon
  TGI: > 100 µM
KM12 colon
  TGI: > 100 µM
RXF 393 renal
  TGI: > 100 µM
HOP-62 NSCLC
  TGI: > 100 µM
MOLT-4 leukemia
  TGI: > 100 µM
NCI-H23 lung
  TGI: > 100 µM
MCF7 breast
  TGI: > 100 µM

## COc1ccc2[nH]c(C(=O)N3CC(CCl)c4c3cc(N)c3ccccc43)cc2c1 (stereo unspecified)
COLO 205 colon
  TGI: < 0.0167 µM
NCI/ADR-RES ovarian
  TGI: < 0.0172 µM
HCC-2998 colon
  TGI: < 0.01 µM
KM12 colon
  TGI: 0.263 µM
HOP-62 NSCLC
  TGI: 0.0358 µM
MOLT-4 leukemia
  TGI: < 0.0153 µM
NCI-H23 lung
  TGI: < 0.0109 µM
MCF7 breast
  TGI: 0.0353 µM

## COC12C=CC(C=C1C#N)CC2 (stereo unspecified) (tested in a mixture with another compound)
MDA-MB-231 breast
  TGI: > 100 µM
COLO 205 colon
  TGI: > 100 µM
NCI/ADR-RES ovarian
  TGI: > 100 µM
HCC-2998 colon
  TGI: > 100 µM
KM12 colon
  TGI: > 100 µM
RXF 393 renal
  TGI: > 100 µM
HOP-62 NSCLC
  TGI: > 100 µM
MOLT-4 leukemia
  TGI: > 100 µM
NCI-H23 lung
  TGI: > 100 µM
MCF7 breast
  TGI: > 100 µM

## Cc1cc(N(CCC#N)CCC#N)ccc1/C=C1\SC(=S)NC1=O
MDA-MB-231 breast
  TGI: > 100 µM
COLO 205 colon
  TGI: > 100 µM
NCI/ADR-RES ovarian
  TGI: > 100 µM
HCC-2998 colon
  TGI: > 100 µM
KM12 colon
  TGI: > 100 µM
RXF 393 renal
  TGI: 99.8 µM
HOP-62 NSCLC
  TGI: > 100 µM
MOLT-4 leukemia
  TGI: > 100 µM
NCI-H23 lung
  TGI: > 100 µM
MCF7 breast
  TGI: > 100 µM

## CCOc1ccc(/C=C2\NC(=S)N(/C=C3\C(=O)Oc4ccccc4C3=O)C2=O)cc1
MDA-MB-231 breast
  TGI: 50.7 µM
COLO 205 colon
  TGI: 43.4 µM
NCI/ADR-RES ovarian
  TGI: 45.7 µM
HCC-2998 colon
  TGI: > 100 µM
KM12 colon
  TGI: 69.2 µM
RXF 393 renal
  TGI: 33.6 µM
HOP-62 NSCLC
  TGI: 61.9 µM
MOLT-4 leukemia
  TGI: 51.2 µM
NCI-H23 lung
  TGI: 80.8 µM
MCF7 breast
  TGI: 63.1 µM

## COC(=O)NC(Cc1ccccc1)NC(C)=O (stereo unspecified)
MDA-MB-231 breast
  TGI: > 100 µM
COLO 205 colon
  TGI: > 100 µM
NCI/ADR-RES ovarian
  TGI: > 100 µM
HCC-2998 colon
  TGI: > 100 µM
KM12 colon
  TGI: > 100 µM
RXF 393 renal
  TGI: > 100 µM
HOP-62 NSCLC
  TGI: > 100 µM
MOLT-4 leukemia
  TGI: > 100 µM
NCI-H23 lung
  TGI: > 100 µM
MCF7 breast
  TGI: > 100 µM

## CCN(CC)CCOC(=O)Cc1cccc2c(=O)cc(-c3ccccc3)oc12
MDA-MB-231 breast
  TGI: 57.2 µM
COLO 205 colon
  GI50: 439 µM
NCI/ADR-RES ovarian
  GI50: 123 µM
  TGI: 62.5 µM and > 283 µM
HCC-2998 colon
  GI50: 34.1 µM
  TGI: 62.5 µM and > 102 µM
KM12 colon
  GI50: 83.5 µM
  TGI: 62.5 µM and > 165 µM
RXF 393 renal
  GI50: 52.6 µM
  TGI: 58.7 µM and > 144 µM
HOP-62 NSCLC
  GI50: 25.9 µM
  TGI: 62.5 µM and > 144 µM
MOLT-4 leukemia
  GI50: 3.37 µM
  TGI: 62.5 µM
NCI-H23 lung
  GI50: 58.7 µM
  TGI: 62.5 µM and > 147 µM
MCF7 breast
  GI50: 46.9 µM
  TGI: 62.5 µM and > 216 µM

## Cc1cc2oc(C)c(S(=O)(=O)NC(=O)Nc3ccc(Cl)cc3)c(=O)c2c(=O)o1
MDA-MB-231 breast
  TGI: > 100 µM
COLO 205 colon
  TGI: > 100 µM
NCI/ADR-RES ovarian
  TGI: > 100 µM
HCC-2998 colon
  TGI: > 100 µM
KM12 colon
  TGI: > 100 µM
RXF 393 renal
  TGI: > 100 µM
HOP-62 NSCLC
  TGI: > 100 µM
MOLT-4 leukemia
  TGI: > 100 µM
NCI-H23 lung
  TGI: > 100 µM
MCF7 breast
  TGI: > 100 µM

## O=[N+]([O-])c1ccc(N2N=C(c3ccc4ccccc4c3O)CC2c2ccc(Cl)cc2)c([N+](=O)[O-])c1 (stereo unspecified)
MDA-MB-231 breast
  TGI: > 100 µM
COLO 205 colon
  TGI: > 100 µM
NCI/ADR-RES ovarian
  TGI: > 100 µM
HCC-2998 colon
  TGI: > 100 µM
KM12 colon
  TGI: > 100 µM
RXF 393 renal
  TGI: > 100 µM
HOP-62 NSCLC
  TGI: > 100 µM
MOLT-4 leukemia
  TGI: 49 µM
NCI-H23 lung
  TGI: > 100 µM
MCF7 breast
  TGI: > 100 µM

## CCOC(=O)C(NC(=O)CC)(Nc1ccc(F)c(Cl)c1)C(F)(F)F (stereo unspecified)
MDA-MB-231 breast
  TGI: > 100 µM
COLO 205 colon
  TGI: > 100 µM
NCI/ADR-RES ovarian
  TGI: > 100 µM
HCC-2998 colon
  TGI: > 100 µM
KM12 colon
  TGI: > 100 µM
RXF 393 renal
  TGI: > 100 µM
HOP-62 NSCLC
  TGI: > 100 µM
MOLT-4 leukemia
  TGI: > 100 µM
MCF7 breast
  TGI: > 100 µM

## O=C(c1ccc(O)c([N+](=O)[O-])c1)c1ccc(O)c([N+](=O)[O-])c1
MDA-MB-231 breast
  TGI: > 100 µM
COLO 205 colon
  TGI: > 100 µM
NCI/ADR-RES ovarian
  TGI: > 100 µM
HCC-2998 colon
  TGI: > 100 µM
KM12 colon
  TGI: > 100 µM
RXF 393 renal
  TGI: > 100 µM
HOP-62 NSCLC
  TGI: > 100 µM
NCI-H23 lung
  TGI: > 100 µM
MCF7 breast
  TGI: > 100 µM

## Cc1ccc2c(C(=O)c3c(C)n(CCN4CCOCC4)c4ccccc34)cccc2c1
MDA-MB-231 breast
  TGI: 47.9 µM
NCI/ADR-RES ovarian
  TGI: 43.1 µM
KM12 colon
  TGI: 57.7 µM
RXF 393 renal
  TGI: 54.6 µM
HOP-62 NSCLC
  TGI: 99.6 µM
MOLT-4 leukemia
  TGI: 36.3 µM
NCI-H23 lung
  TGI: > 100 µM
MCF7 breast
  TGI: 16.8 µM

## Cc1cc(N2CCCC2)c([N+](=O)[O-])cc1[N+](=O)[O-]
MDA-MB-231 breast
  TGI: > 100 µM
COLO 205 colon
  TGI: > 100 µM
NCI/ADR-RES ovarian
  TGI: > 100 µM
HCC-2998 colon
  TGI: > 100 µM
KM12 colon
  TGI: > 100 µM
RXF 393 renal
  TGI: > 100 µM
MOLT-4 leukemia
  TGI: > 100 µM
NCI-H23 lung
  TGI: > 100 µM
MCF7 breast
  TGI: > 100 µM

## CC(=O)Oc1cc(OC(C)=O)c2c(C)cc(=O)oc2c1
MDA-MB-231 breast
  TGI: > 100 µM
COLO 205 colon
  TGI: > 100 µM
NCI/ADR-RES ovarian
  TGI: > 100 µM
KM12 colon
  TGI: > 100 µM
HOP-62 NSCLC
  TGI: > 100 µM
MOLT-4 leukemia
  TGI: > 100 µM
NCI-H23 lung
  TGI: > 100 µM
MCF7 breast
  TGI: > 100 µM

## CCOC(=O)c1[nH]c2cccc3c2c1CC[C@H](NC(=O)C(F)(F)F)C3=O
MDA-MB-231 breast
  TGI: > 100 µM
COLO 205 colon
  TGI: > 100 µM
NCI/ADR-RES ovarian
  TGI: > 100 µM
HCC-2998 colon
  TGI: > 100 µM
KM12 colon
  TGI: > 100 µM
HOP-62 NSCLC
  TGI: 72.5 µM
MOLT-4 leukemia
  TGI: > 100 µM
NCI-H23 lung
  TGI: > 100 µM
MCF7 breast
  TGI: > 100 µM

## COC(=O)c1ccccc1C1=C([N+](=O)[O-])C(c2ccccc2)C(C#N)=C(N)O1 (stereo unspecified)
MDA-MB-231 breast
  TGI: > 100 µM
COLO 205 colon
  TGI: > 100 µM
NCI/ADR-RES ovarian
  TGI: > 100 µM
HCC-2998 colon
  TGI: > 100 µM
KM12 colon
  TGI: > 100 µM
RXF 393 renal
  TGI: 95.2 µM
HOP-62 NSCLC
  TGI: > 100 µM
MOLT-4 leukemia
  TGI: > 100 µM
NCI-H23 lung
  TGI: > 100 µM
